Results: patent US20240109865A1, “INDAZOLE COMPOUNDS AS KINASE INHIBITORS” (TYRA BIOSCIENCES, INC., priority 2020, published 2024)

How the values were obtained:
Assay in all cases: Kinase assay, binding constants (Kd), kinase-tagged T7 phage, qPCR
FGFR1 = FGFR1 (Homo sapiens (Human), UniProt P11362)
Procedure, shortened: (§1)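 Using T7 phage lysates from BL21-derived E. coli, compounds at 0.9% final DMSO competed for kinase binding to ligand-bearing magnetic beads. After elution, qPCR measured remaining kinase, and Kds were fitted by non-linear least squares with the Hill slope fixed at −1.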

FGFR2 = FGFR2 (Homo sapiens (Human), UniProt P21802)
Procedure, shortened: as §1

FGFR3 = FGFR3 (Homo sapiens (Human), UniProt P22607)
Procedure, shortened: as §1

FGFR3 (V555M) = FGFR3 (V555M) (Homo sapiens (Human), UniProt P22607, V555M); details: V555M mutant
Procedure, shortened: as §1

FGFR4 = FGFR4 (Homo sapiens (Human), UniProt P22455)
Procedure, shortened: as §1

FGFR2, sequence (P21802 22-821): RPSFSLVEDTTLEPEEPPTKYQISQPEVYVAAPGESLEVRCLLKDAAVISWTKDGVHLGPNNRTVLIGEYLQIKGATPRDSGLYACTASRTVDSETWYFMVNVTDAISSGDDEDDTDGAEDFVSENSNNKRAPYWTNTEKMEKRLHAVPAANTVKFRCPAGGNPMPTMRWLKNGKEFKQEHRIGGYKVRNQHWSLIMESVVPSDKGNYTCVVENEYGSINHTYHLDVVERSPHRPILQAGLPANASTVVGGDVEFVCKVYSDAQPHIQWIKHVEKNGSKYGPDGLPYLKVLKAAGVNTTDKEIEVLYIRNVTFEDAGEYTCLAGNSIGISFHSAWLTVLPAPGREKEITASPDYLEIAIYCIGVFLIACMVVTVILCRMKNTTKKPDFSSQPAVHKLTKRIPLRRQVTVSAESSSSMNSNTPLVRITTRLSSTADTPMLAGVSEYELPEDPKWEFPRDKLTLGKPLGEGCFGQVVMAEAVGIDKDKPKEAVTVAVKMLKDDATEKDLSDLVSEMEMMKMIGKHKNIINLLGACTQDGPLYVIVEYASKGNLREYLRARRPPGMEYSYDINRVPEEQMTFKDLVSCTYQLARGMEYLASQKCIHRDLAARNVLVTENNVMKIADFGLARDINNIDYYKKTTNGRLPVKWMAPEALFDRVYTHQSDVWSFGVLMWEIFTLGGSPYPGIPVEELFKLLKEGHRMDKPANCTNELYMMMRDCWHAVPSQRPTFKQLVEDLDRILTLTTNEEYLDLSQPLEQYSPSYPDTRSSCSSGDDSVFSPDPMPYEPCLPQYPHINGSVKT
FGFR3 (V555M), sequence (P22607 23-806 V555M): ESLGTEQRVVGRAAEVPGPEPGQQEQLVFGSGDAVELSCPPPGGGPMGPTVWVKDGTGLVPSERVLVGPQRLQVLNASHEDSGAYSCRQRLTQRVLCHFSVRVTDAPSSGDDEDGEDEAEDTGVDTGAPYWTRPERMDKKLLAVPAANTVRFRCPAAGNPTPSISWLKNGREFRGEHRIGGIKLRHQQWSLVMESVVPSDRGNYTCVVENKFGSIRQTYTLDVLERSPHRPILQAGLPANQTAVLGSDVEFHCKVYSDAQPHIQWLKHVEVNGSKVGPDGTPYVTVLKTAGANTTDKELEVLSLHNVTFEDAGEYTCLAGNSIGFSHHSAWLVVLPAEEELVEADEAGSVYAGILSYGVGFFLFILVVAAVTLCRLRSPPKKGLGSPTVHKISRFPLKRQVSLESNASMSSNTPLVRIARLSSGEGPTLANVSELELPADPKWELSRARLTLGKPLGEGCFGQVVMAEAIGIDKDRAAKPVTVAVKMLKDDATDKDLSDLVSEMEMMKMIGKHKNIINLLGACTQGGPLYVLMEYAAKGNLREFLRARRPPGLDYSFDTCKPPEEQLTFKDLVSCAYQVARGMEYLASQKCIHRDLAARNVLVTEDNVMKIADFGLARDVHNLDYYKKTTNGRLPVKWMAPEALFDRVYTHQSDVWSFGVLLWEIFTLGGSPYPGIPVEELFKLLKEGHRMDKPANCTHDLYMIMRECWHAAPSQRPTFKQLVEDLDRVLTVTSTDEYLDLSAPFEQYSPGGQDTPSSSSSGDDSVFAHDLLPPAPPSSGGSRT
FGFR3, sequence (P22607 23-806): as the sequence (P22607 23-806 V555M) above, with M533V counted along it
FGFR4, sequence (P22455 22-802): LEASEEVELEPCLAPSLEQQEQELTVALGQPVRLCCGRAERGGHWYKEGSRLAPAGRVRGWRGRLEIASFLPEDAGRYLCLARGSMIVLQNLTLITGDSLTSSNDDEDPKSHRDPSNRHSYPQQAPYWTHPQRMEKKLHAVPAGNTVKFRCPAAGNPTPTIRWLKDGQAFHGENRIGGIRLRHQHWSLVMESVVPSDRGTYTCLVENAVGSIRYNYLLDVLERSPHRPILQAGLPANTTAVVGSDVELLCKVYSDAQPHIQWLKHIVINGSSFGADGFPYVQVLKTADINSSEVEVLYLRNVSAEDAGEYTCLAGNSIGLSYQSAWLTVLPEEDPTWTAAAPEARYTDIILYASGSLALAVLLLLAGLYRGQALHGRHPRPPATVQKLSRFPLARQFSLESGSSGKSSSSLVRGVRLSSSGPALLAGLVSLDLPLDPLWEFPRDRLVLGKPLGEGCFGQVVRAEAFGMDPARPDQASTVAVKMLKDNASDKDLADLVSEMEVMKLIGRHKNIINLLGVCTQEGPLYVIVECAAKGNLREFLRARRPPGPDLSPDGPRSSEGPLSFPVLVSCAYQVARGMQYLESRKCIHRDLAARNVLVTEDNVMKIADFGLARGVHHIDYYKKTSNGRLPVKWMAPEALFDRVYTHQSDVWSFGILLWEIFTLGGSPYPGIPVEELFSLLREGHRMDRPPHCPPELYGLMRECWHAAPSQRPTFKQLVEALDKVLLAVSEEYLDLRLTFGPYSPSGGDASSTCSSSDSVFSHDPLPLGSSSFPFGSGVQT
FGFR1, sequence (P11362 22-822): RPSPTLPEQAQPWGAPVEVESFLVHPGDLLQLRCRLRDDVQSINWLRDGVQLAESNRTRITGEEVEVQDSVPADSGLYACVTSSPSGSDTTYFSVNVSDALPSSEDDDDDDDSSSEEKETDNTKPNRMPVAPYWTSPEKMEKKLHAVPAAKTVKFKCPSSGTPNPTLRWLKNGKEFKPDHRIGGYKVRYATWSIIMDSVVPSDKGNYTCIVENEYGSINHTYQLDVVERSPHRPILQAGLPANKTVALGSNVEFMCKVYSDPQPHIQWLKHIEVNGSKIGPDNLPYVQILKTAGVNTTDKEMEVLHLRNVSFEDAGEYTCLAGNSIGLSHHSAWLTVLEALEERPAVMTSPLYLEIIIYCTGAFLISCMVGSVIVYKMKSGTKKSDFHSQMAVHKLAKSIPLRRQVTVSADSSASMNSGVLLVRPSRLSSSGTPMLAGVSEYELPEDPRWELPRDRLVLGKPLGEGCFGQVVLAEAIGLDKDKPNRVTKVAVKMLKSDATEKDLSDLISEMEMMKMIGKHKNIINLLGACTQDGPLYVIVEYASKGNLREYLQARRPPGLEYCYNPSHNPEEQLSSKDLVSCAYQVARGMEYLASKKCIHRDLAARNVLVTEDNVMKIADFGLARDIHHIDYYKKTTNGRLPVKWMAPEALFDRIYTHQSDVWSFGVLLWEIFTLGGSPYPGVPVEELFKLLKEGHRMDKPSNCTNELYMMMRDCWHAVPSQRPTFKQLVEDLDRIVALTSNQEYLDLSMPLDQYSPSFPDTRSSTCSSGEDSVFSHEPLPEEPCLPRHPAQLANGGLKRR

Compound	Kd (FGFR1)	Kd (FGFR2)	Kd (FGFR3)	Kd (FGFR3 (V555M))	Kd (FGFR4)
C[C@@H](Oc1ccc2[nH]nc(-c3cnc(N4CCC[C@H]4CO)c(C#N)c3)c2c1)c1c(Cl)cncc1Cl [Example 334, 5-(5-((R)-1-(3,5-dichloropyridin-4-yl)ethoxy)-1H-indazol-3-yl)-2-((S)-2-(hydroxymethyl)pyrrolidin-1-yl)nicotinonitrile]	20 to 100 nM	20 to 100 nM	1 to 20 nM	1 to 20 nM	1 to 20 nM
Cc1cnnc(C)c1[C@@H](C)Oc1ccc2[nH]nc(-c3cnc(N4CCC[C@@H]4CO)c(C#N)c3)c2c1 [Example 335, 5-(5-((R)-1-(3,5-dimethylpyridazin-4-yl)ethoxy)-1H-indazol-3-yl)-2-((R)-2-(hydroxymethyl)pyrrolidin-1-yl)nicotinonitrile]	1 to 20 nM	20 to 100 nM	1 to 20 nM	1 to 20 nM	1 to 20 nM
Cc1cnnc(C)c1[C@@H](C)Oc1ccc2[nH]nc(-c3cnc(N4CCC[C@H]4CO)c(C#N)c3)c2c1 [Example 336, 5-(5-((R)-1-(3,5-dimethylpyridazin-4-yl)ethoxy)-1H-indazol-3-yl)-2-((S)-2-(hydroxymethyl)pyrrolidin-1-yl)nicotinonitrile]	20 to 100 nM	20 to 100 nM	20 to 100 nM	1 to 20 nM	1 to 20 nM
C[C@@H](Oc1ccc2[nH]nc(-c3cnc(N4CC5(C4)CN(S(C)(=O)=O)C5)c(C#N)c3)c2c1)c1c(Cl)cncc1Cl [Example 337, (R)-5-(5-(1-(3,5-dichloropyridin-4-yl)ethoxy)-1H-indazol-3-yl)-2-(6-(methylsulfonyl)-2,6-diazaspiro[3.3]heptan-2-yl)nicotinonitrile]	20 to 100 nM	100 to 300 nM	20 to 100 nM	1 to 20 nM	1 to 20 nM
C[C@@H](Oc1ccc2[nH]nc(-c3cnc(N4CC5(CCCN(S(C)(=O)=O)C5)C4)c(C#N)c3)c2c1)c1c(Cl)cncc1Cl [Example 338, (R)-5-(5-(1-(3,5-dichloropyridin-4-yl)ethoxy)-1H-indazol-3-yl)-2-(6-(methylsulfonyl)-2,6-diazaspiro[3.5]nonan-2-yl)nicotinonitrile]	100 to 300 nM	> 300 nM	20 to 100 nM	1 to 20 nM	1 to 20 nM
COc1cc2[nH]nc(-c3cnc(N4CC5(CCS(=O)(=O)C5)C4)c(C#N)c3)c2cc1O[C@H](C)c1c(Cl)cncc1Cl [Example 339, (R)-5-(5-(1-(3,5-dichloropyridin-4-yl)ethoxy)-6-methoxy-1H-indazol-3-yl)-2-(6,6-dioxido-6-thia-2-azaspiro[3.4]octan-2-yl)nicotinonitrile]	1 to 20 nM	1 to 20 nM	1 to 20 nM	1 to 20 nM	1 to 20 nM
C[C@@H](Oc1ccc2[nH]nc(-c3cnc(N4CC5(CCCS(=O)(=O)C5)C4)c(C#N)c3)c2c1)c1c(Cl)cncc1Cl [Example 340, (R)-5-(5-(1-(3,5-dichloropyridin-4-yl)ethoxy)-1H-indazol-3-yl)-2-(6,6-dioxido-6-thia-2-azaspiro[3.5]nonan-2-yl)nicotinonitrile]	100 to 300 nM	100 to 300 nM	1 to 20 nM	100 to 300 nM	1 to 20 nM
COc1cc2[nH]nc(-c3cnc(N4CC5(C4)CN(S(C)(=O)=O)C5)c(C#N)c3)c2cc1O[C@H](C)c1c(Cl)cnc(C)c1Cl [Example 341, 5-[5-[(1R)-1-(3,5-dichloro-2-methyl-4-pyridyl)ethoxy]-6-methoxy-1H-indazol-3-yl]-2-(2-methylsulfonyl-2,6-diazaspiro[3.3]heptan-6-yl)pyridine-3-carbonitrile]	20 to 100 nM	20 to 100 nM	1 to 20 nM	1 to 20 nM	1 to 20 nM
COc1cc2[nH]nc(-c3cnc(N4CC5(C4)CN(S(C)(=O)=O)C5)c(C#N)c3)c2cc1O[C@H](C)c1c(Cl)cncc1Cl [Example 342, 5-[5-[(1R)-1-(3,5-dichloro-4-pyridyl)ethoxy]-6-methoxy-1H-indazol-3-yl]-2-(2-methylsulfonyl-2,6-diazaspiro[3.3]heptan-6-yl)pyridine-3-carbonitrile]	20 to 100 nM	1 to 20 nM	1 to 20 nM	1 to 20 nM	1 to 20 nM
C[C@@H](Oc1ccc2[nH]nc(-c3cnc(N4CC5(CCS(=O)(=O)C5)C4)c(C#N)c3)c2c1)c1c(Cl)cncc1Cl [Example 343, (R)-5-(5-(1-(3,5-dichloropyridin-4-yl)ethoxy)-1H-indazol-3-yl)-2-(6,6-dioxido-6-thia-2-azaspiro[3.4]octan-2-yl)nicotinonitrile]	20 to 100 nM	20 to 100 nM	1 to 20 nM	1 to 20 nM	1 to 20 nM
COc1cc(-c2n[nH]c3ccc(O[C@H](C)c4c(Cl)cncc4Cl)cc23)cnc1N1CC2(C1)CN(S(C)(=O)=O)C2 [Example 344, (R)-5-(1-(3,5-dichloropyridin-4-yl)ethoxy)-3-(5-methoxy-6-(6-(methylsulfonyl)-2,6-diazaspiro[3.3]heptan-2-yl)pyridin-3-yl)-1H-indazole]	> 300 nM	> 300 nM	100 to 300 nM	20 to 100 nM	1 to 20 nM
C[C@@H](Oc1ccc2[nH]nc(-c3cnc(N4CC(C(F)F)C4)c(C#N)c3)c2c1)c1c(Cl)cncc1Cl [Example 345, (R)-5-(5-(1-(3,5-dichloropyridin-4-yl)ethoxy)-1H-indazol-3-yl)-2-(3-(difluoromethyl)azetidin-1-yl)nicotinonitrile]	> 300 nM	> 300 nM	20 to 100 nM	20 to 100 nM	1 to 20 nM
COc1cc2[nH]nc(-c3cnc(N4CC5(CCCS(=O)(=O)C5)C4)c(C#N)c3)c2cc1O[C@H](C)c1c(Cl)cncc1Cl [Example 346, (R)-5-(5-(1-(3,5-dichloropyridin-4-yl)ethoxy)-6-methoxy-1H-indazol-3-yl)-2-(6,6-dioxido-6-thia-2-azaspiro[3.5]nonan-2-yl)nicotinonitrile]	1 to 20 nM	1 to 20 nM	1 to 20 nM	1 to 20 nM	1 to 20 nM
C[C@@H](Oc1ccc2[nH]nc(-c3cnc(N4CC(C(F)(F)F)C4)c(C#N)c3)c2c1)c1c(Cl)cncc1Cl [Example 347, (R)-5-(5-(1-(3,5-dichloropyridin-4-yl)ethoxy)-1H-indazol-3-yl)-2-(3-(trifluoromethyl)azetidin-1-yl)nicotinonitrile]	> 300 nM	> 300 nM	20 to 100 nM	20 to 100 nM	1 to 20 nM
C[C@@H](Oc1ccc2[nH]nc(-c3cnc(N4CC(C#N)C4)c(C#N)c3)c2c1)c1c(Cl)cncc1Cl [Example 348, (R)-2-(3-cyanoazetidin-1-yl)-5-(5-(1-(3,5-dichloropyridin-4-yl)ethoxy)-1H-indazol-3-yl)nicotinonitrile]	20 to 100 nM	> 300 nM	1 to 20 nM	1 to 20 nM	1 to 20 nM
Cc1ncc(Cl)c([C@@H](C)Oc2ccc3[nH]nc(-c4cnc(N5CC6(CCCS(=O)(=O)C6)C5)c(C#N)c4)c3c2)c1Cl [Example 349, 5-[5-[(1R)-1-(3,5-dichloro-2-methyl-4-pyridyl)ethoxy]-1H-indazol-3-yl]-2-(6,6-dioxo-6λ^6-thia-2-azaspiro[3.5]nonan-2-yl)pyridine-3-carbonitrile]	100 to 300 nM	100 to 300 nM	20 to 100 nM	1 to 20 nM	1 to 20 nM
